Laboratory results as given in patent publication US20240423962A1, “FASCIN BINDING COMPOUNDS FOR SPINOGENESIS” (Spinogenix, Inc., priority 2018, published 2024).

Experiments:
[1] = biological target: fascin (Homo sapiens, UniProt Q16658); settings: cited from earlier work
[2] = system: primary mouse cortical neurons; assay: Synaptic density of primary mouse cortical neurons (synaptophysin P38 puncta), FIG. 6; format: cell-based; settings: luM, 24 hours of treatment
Procedure: The effect of the indicated compounds on the synaptic density of primary mouse cortical neurons was determined after 24 hours of treatment. FIG. 6. Primary mouse cortical neurons were treated on day 15 in vitro with fascin-inhibiting small molecules at luM, or with vehicle (DMSO). After 24 hours of treatment, neurons were fixed, immunolabeled for a protein component of synapses, the presynaptic vesicle protein, synaptophysin (P38), and then stained with the nuclear dye DAPI. Immunolabeled neurons were imaged on a Leica confocal microscope. The numbers of P38-immunopositive puncta were analyzed using FUI with the Squash plugin.

O=C(Nc1nn(Cc2ccc(C(F)(F)F)cc2)c2ccccc12)c1ccco1 [compound 1, N-(1-(4-(trifluoromethyl)benzyl)-1H-indazol-3-yl)furan-2-carboxamide]
Fascin binding site ([1]; FIG. 5): bind to fascin at binding site 2
Effect of binding on actin-binding sites of fascin [1]: opens actin-binding site 2 and closes actin-binding site 1
Spine density compared to comparative compounds [2]: increase spine density more than comparative compounds 1 and 7
Spine density compared to control ([2]; vs vehicle (DMSO)): increase spine density compared to control
